In patent publication US9809598B2 (Merck Patent GmbH, priority 2014, dated 2017):
≈ marks a conversion by molar mass, not a printed value.

Key:
Tankyrase = conditions: as reported in the cited publication / patent application; read-out: cellular assay: EC50; cited from earlier work
Solubility pH 7.4 = assay type: physicochemical; conditions: pH 7.4, aqueous buffer
[1] = Microsomal stability (intrinsic clearance), mouse liver microsomes; assay type: in vitro ADME; conditions: pH 7.4
From the text: (§1) Test Method Microsomal Stability (Intrinsic Clearance)
(§2) A microsomal stability assay is used to measure in vitro clearance (Clint). The assay involves measuring the rate of disappearance of a compound due to its intrinsic attitude to be metabolized (“intrinsic” meaning that the disappearance is not affected by other properties like permeability, binding etc. that play a role when quantifying in vivo clearance). The microsomal stability (intrinsic clearance, Clint) and thus metabolic stability is generally given as μl/min/mg protein. It can be visualized as the volume of solution that 1 mg of microsomes is able to clear of the compound in one minute.
(§3) A Tecan Genesis workstation (RSP 150/8) was used for to perform the microsomal incubations. Analysis was carried out using a Waters ACQUITY UPLC system coupled to an ABSciex API3000 mass spectrometer. Data analysis was performed using Assay Explorer (Symyx).
(§4) Chemicals • Potassium phosphate buffer: 0.05 M potassium phosphate buffer pH 7.4 containing 1 mM MgCl2 • NADPH (nicotinamide adenine dinucleotide phosphate): 22.5 mg NADPH-Na4 in 1.8 ml potassium phosphate buffer • Acetonitrile: 50 Vol % acetonitrile (1 volume acetonitrile, 1 volume water) • DMSO: 20 Vol % DMSO in water • Stock solution of 20 mg/ml human or mouse liver microsomes (protein)/ml in phosphate buffer
(§5) Stock solution of 10 mM compound in 100% DMSO

[2] = Microsomal stability (intrinsic clearance), human liver microsomes; assay type: in vitro ADME; conditions: pH 7.4
From the text: as §1, §2, §3, §4, §5

Tankyrases = conditions: read-out: EC50 [M] TNKS cellular assay; DLD1 cells, 24 hours, Axin2 increase
Experimental: Measurement of Cellular Inhibition of Tankyrase
Cells of the colon carcinoma cell line DLD1 are plated in 96 well plates with 1.5×10^4 cells per well. Next day, cells are treated with a serial dilution of test compound in seven steps as triplicates with a final DMSO concentration of 0.3%. […] The amount of isolated Axin2 protein is determined in a Luminex^200 machine (Luminex Corporation) according to the manufacturer's instruction by counting 100 events per well. […] As controls cells are treated with solvent alone (neutral control) and with a Tankyrase reference inhibitor IWR-2 (3E−06 M) which refers as control for maximum increase of Axin2. For analysis, the obtained data are normalized against the untreated solvent control and fitted for determination of the EC50 values using the Assay Explorer software (Accelrys).

PARP-1 = target: T1, PARP-1 (Homo sapiens, UniProt P09874); experiment: PARP-1 autoparsylation assay (HTRF); assay type: biochemical; conditions: His-tagged Parp-1, autoparsylation HTRF
T1 construct: purchased Enzo Life Sciences GmbH, Lörrach, Germany
T1 sequence (P09874 whole entry): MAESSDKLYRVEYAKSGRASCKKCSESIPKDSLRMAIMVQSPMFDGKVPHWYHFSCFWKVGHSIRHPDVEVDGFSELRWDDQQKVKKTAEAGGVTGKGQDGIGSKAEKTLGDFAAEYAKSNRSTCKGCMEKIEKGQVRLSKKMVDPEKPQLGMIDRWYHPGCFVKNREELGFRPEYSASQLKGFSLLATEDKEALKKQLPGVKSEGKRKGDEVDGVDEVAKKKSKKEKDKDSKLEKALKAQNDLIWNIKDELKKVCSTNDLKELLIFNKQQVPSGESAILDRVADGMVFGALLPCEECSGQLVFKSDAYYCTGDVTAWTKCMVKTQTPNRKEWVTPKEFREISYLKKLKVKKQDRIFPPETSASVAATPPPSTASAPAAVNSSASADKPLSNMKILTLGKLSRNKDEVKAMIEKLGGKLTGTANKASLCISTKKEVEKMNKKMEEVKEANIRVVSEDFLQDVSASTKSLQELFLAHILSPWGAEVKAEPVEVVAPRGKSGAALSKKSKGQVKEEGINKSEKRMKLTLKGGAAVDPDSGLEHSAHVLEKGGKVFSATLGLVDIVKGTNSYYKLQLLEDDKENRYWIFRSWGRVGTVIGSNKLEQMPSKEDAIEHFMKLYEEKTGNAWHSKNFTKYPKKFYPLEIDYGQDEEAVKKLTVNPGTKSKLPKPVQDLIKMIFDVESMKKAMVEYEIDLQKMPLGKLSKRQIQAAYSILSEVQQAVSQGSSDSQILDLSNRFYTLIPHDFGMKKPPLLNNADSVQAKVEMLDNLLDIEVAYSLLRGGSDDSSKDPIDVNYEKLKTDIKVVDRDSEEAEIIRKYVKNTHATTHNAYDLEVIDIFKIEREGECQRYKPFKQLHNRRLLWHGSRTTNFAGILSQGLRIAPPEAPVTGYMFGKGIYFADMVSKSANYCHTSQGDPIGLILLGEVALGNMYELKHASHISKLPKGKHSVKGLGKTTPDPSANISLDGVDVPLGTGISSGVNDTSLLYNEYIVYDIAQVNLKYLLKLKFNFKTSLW
Summary of the method: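 His-tagged enzyme auto-modifies itself using biotinylated NAD/NAD; product detected by TR-FRET between cryptate anti-His antibody and Xlent-streptavidin, as emission ratio.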

TNKS1 = target: T2, TNKS1 (Homo sapiens, UniProt O95271); experiment: TNKS1 activity ELISA (autoparsylation assay); assay type: biochemical; conditions: GST-tagged Tnks-1 (1023-1327 aa)
T2 construct: GST-tagged Tnks-1 (1023-1327 aa, prepared in-house); made in house
T2 sequence (O95271 1023-1327): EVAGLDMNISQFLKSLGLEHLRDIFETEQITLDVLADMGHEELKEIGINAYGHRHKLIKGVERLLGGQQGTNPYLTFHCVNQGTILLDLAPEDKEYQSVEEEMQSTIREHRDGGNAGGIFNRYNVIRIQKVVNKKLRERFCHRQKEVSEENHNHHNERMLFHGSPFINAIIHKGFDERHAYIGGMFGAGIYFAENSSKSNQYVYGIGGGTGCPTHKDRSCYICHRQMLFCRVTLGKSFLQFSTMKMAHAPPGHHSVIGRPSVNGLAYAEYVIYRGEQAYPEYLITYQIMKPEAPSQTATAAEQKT
Summary of the method: (§6)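 GST-tagged TNKS1 or TNKS2 captured on glutathione plates and allowed to auto-PARsylate with biotinylated NAD with or without compound. Biotin-ADP-ribosylated enzyme detected by streptavidin-HRP and luminescence; IC50 relative to inhibitor-free reaction.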

TNKS2 = target: T3, TNKS2 (Homo sapiens, UniProt Q9H2K2); experiment: TNKS2 activity ELISA (autoparsylation assay); assay type: biochemical; conditions: GST-tagged Tnks-2 (873-1166 aa); read-out: IC50 [M] TNKS2 ELISA
T3 construct: GST-tagged Tnks-2 (873-1166 aa, prepared in-house); made in house
T3 sequence (Q9H2K2 873-1166): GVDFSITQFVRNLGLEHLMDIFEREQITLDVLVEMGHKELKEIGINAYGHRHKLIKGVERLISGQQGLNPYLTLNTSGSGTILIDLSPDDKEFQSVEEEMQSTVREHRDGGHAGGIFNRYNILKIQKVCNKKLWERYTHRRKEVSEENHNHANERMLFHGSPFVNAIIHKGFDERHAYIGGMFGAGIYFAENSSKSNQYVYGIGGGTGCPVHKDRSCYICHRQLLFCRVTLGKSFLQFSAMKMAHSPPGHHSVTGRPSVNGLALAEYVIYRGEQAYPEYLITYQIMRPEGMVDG
Summary of the method: as §6

DLD-1-cancer cells = conditions: Huang et al., 2009; Nature; cited from earlier work

| SMILES | EC50 (Tankyrase) | solubility (Solubility pH 7.4) | microsomal CLint [1] | microsomal CLint [2] | EC50 (Tankyrases) | IC50 (PARP-1) | IC50 (TNKS1) | IC50 (TNKS2) | growth of DLD-1-cancer cells (DLD-1-cancer cells) |
| --- | --- | --- | --- | --- | --- | --- | --- | --- | --- |
| COc1ccc(C(=O)C2CCN(CC(=O)N(Cc3nc4c(c(=O)[nH]3)COCC4)CC3CC3)CC2)cc1 | 35 nM |  |  |  |  |  |  |  |  |
| COc1ccccc1NC(=O)c1ccc(NC(=O)CCc2nc3ccccc3c(=O)[nH]2)cc1 | 320 nM |  |  |  |  |  |  |  |  |
| COc1ccc(C(=O)C2CCN(C(=O)CCCc3nc4ccccc4c(=O)[nH]3)CC2)cc1 [Compound A1, 2-{4-[4-(4-methoxy-benzoyl)-piperidin-1-yl]-4-oxo-butyl}-3H-quinazolin-4-one, reference compound] |  | 18 µg/mL (≈ 41.5 µM) | 120 µL/min/mg | 104 µL/min/mg | 2e-09 M |  |  |  |  |
| COc1ccc(C(=O)C2CCN(C(=O)CCCc3nc4c(F)cc(F)cc4c(=O)[nH]3)CC2)cc1 [Compound A5, 6,8-difluoro-2-{4-[4-(4-methoxy-benzoyl)-piperidin-1-yl]-4-oxo-butyl}-3H-quinazolin-4-one, reference compound] |  | 5 µg/mL (≈ 10.6 µM) | 86 µL/min/mg | 58 µL/min/mg | 2.6e-09 M |  |  |  |  |
| COc1ccc(C(=O)C2CCN(C(=O)CCCc3nc4c(cnn4C)c(=O)[nH]3)CC2)cc1 [Compound C41, 6-{4-[4-(4-Methoxy-benzoyl)-piperidin-1-yl]-4-oxo-butyl}-1-methyl-1,5-dihydro-pyrazolo[3,4-d]pyrimidin-4-one] |  | 55 µg/mL (≈ 126 µM) | 36 µL/min/mg | 25 µL/min/mg | 1.8e-09 M | 6300 nM | 0.18 nM | 1.3e-10 M |  |
| COc1ccc(C(=O)C2CCN(C(=O)CCCc3nc4c(cnn4C)c(=O)[nH]3)CC2)cc1F [Compound C42, 6-{4-[4-(3-Fluoro-4-methoxy-benzoyl)-piperidin-1-yl]-4-oxo-butyl}-1-methyl-1,5-dihydro-pyrazolo[3,4-d]pyrimidin-4-one] |  | 158 µg/mL (≈ 347 µM) | 51 µL/min/mg | 16 µL/min/mg | 4.8e-09 M | 12000 nM | 0.12 nM | < 1e-10 M |  |
| COc1ccc(C(=O)C2CCN(C(=O)CCCc3nc4c(cnn4C)c(=O)[nH]3)CC2)cn1 [Compound C43, 6-{4-[4-(6-Methoxy-pyridine-3-carbonyl)-piperidin-1-yl]-4-oxo-butyl}-1-methyl-1,5-dihydro-pyrazolo[3,4-d]pyrimidin-4-one] |  | 207 µg/mL (≈ 472 µM) | 36 µL/min/mg | 15 µL/min/mg | 4.3e-09 M | 18000 nM | 0.52 nM | 3.5e-10 M |  |
| Cn1ncc2c(=O)[nH]c(CCCC(=O)N3CCC(c4cnc(N)c(-c5ncccn5)c4)CC3)nc21 [Compound C45, 6-[4-(6-Amino-5-pyrimidin-2-yl-3′,4′,5′,6′-tetrahydro-2′H-[3,4′]bipyridinyl-1′-yl)-4-oxo-butyl]-1-methyl-1,5-dihydro-pyrazolo[3,4-d]pyrimidin-4-one] |  | 42 µg/mL (≈ 88.7 µM) | 62 µL/min/mg | 25 µL/min/mg | 4.9e-10 M | 3800 nM | 0.26 nM | 1.9e-10 M |  |
| Cn1ncc2c(=O)[nH]c(CCCC(=O)N3CCC(C(=O)c4ccc(F)cc4)CC3)nc21 [Compound C48, 6-{4-[4-(4-Fluoro-benzoyl)-piperidin-1-yl]-4-oxo-butyl}-1-methyl-1,5-dihydro-pyrazolo[3,4-d]pyrimidin-4-one] |  | 206 µg/mL (≈ 484 µM) | 59 µL/min/mg | 20 µL/min/mg | 4.4e-09 M | 7300 nM | 0.45 nM | 3.1e-10 M |  |
| COc1ccc(C(=O)C2CCN(C(=O)CCCc3nc4c(c(=O)[nH]3)COCC4)CC2)cc1 [Compound C52, 2-{4-[4-(4-Methoxy-benzoyl)-piperidin-1-yl]-4-oxo-butyl}-3,5,7,8-tetrahydro-pyrano[4,3-d]pyrimidin-4-one] |  | 868 µg/mL (≈ 1970 µM) | < 10 µL/min/mg | < 10 µL/min/mg | 4.6e-09 M | 1900 nM | 1.4 nM | 4.8e-10 M |  |
| COc1ccc(C(=O)C2CCN(C(=O)CCCc3nn4cccc4c(=O)[nH]3)CC2)cn1 [Compound C137, 2-{4-[4-(6-Methoxy-pyridine-3-carbonyl)-piperidin-1-yl]-4-oxo-butyl}-3H-pyrrolo[2,1-f][1,2,4]triazin-4-one] |  | 70 µg/mL (≈ 165 µM) | 78 µL/min/mg | 10 µL/min/mg | 1.9e-08 M | 21000 nM | 1.5 nM | 1e-09 M |  |
| Cc1ccc2c(=O)[nH]c(CCCC(=O)N3CCC(C(=O)c4cnn(C)c4)CC3)nn12 [Compound C157, 7-Methyl-2-{4-[4-(1-methyl-1H-pyrazole-4-carbonyl)-piperidin-1-yl]-4-oxo-butyl}-3H-pyrrolo[2,1-f][1,2,4]triazin-4-one] |  | 272 µg/mL (≈ 663 µM) | 46 µL/min/mg | 22 µL/min/mg | 2.7e-09 M | 860 nM | 0.31 nM | 2.6e-10 M |  |
| Cn1cc(C(=O)C2CCN(C(=O)CCCc3nn4cc(F)cc4c(=O)[nH]3)CC2)cn1 [Compound C179, 6-Fluoro-2-{4-[4-(1-methyl-1H-pyrazole-4-carbonyl)-piperidin-1-yl]-4-oxo-butyl}-3H-pyrrolo[2,1-f][1,2,4]triazin-4-one] |  | 58 µg/mL (≈ 140 µM) | 29 µL/min/mg | 11 µL/min/mg | 1.7e-08 M | 11000 nM | 0.52 nM | 1.1e-09 M |  |
| COc1ccc(C(=O)C2CCN(C(=O)CCCc3nc4c(c(=O)[nH]3)COCC4)CC2)cc1C [Compound C199, 2-{4-[4-(4-Methoxy-3-methyl-benzoyl)-piperidin-1-yl]-4-oxo-butyl}-3,5,7,8-tetrahydro-pyrano[4,3-d]pyrimidin-4-one] |  | 585 µg/mL (≈ 1290 µM) | 44 µL/min/mg | 12 µL/min/mg | 3.3e-09 M | 2200 nM | 0.27 nM | 2.2e-10 M |  |
| Cn1cc(C(=O)C2CCN(C(=O)CCCc3cn4c(F)ccc4c(=O)[nH]3)CC2)cn1 [Compound C208, 6-Fluoro-3-{4-[4-(1-methyl-1H-pyrazole-4-carbonyl)-piperidin-1-yl]-4-oxo-butyl}-2H-pyrrolo[1,2-a]pyrazin-1-one] |  | 101 µg/mL (≈ 244 µM) | 26 µL/min/mg | < 10 µL/min/mg | 5.2e-09 M | 6000 nM | 0.25 nM | 2.3e-10 M |  |
| CCn1cc(C(=O)C2CCN(C(=O)CCCc3nn4cccc4c(=O)[nH]3)CC2)cn1 [Compound C214, 2-{4-[4-(1-Ethyl-1H-pyrazole-4-carbonyl)-piperidin-1-yl]-4-oxo-butyl}-3H-pyrrolo[2,1-f][1,2,4]triazin-4-one] |  | 394 µg/mL (≈ 960 µM) | 41 µL/min/mg | 21 µL/min/mg | 1.5e-08 M | 8500 nM | 2.2 nM | 1.3e-09 M |  |
| Oc1nc(-c2ccc(C(F)(F)F)cc2)nc2c1CSCC2 [XAV939] |  |  |  |  |  |  |  |  | inhibits growth |
